{"source": "patent US20030021772A1", "about": "(priority 2001, published 2003)", "key": {"human beings": {"system": "human beings", "assay": "Adverse effects (headaches) during the jet lag study", "assay_type": "in vivo", "conditions": "sublingual NADH 20 mg", "method": "(§1) The efficacy of a stabilized, sublingual form of reduced nicotinamide adenine dinucleotide (NADH, available commercially under the name ENADA® from Menuco Corp.) as a treatment for the effects of jet lag and sleep deprivation on human beings was examined. Healthy individuals were treated with NADH on the day following an overnight flight across North America, and the effects of NADH on their cognitive functioning were monitored. Although the sublingual form of NADH was used in these examples, any of the aforementioned forms of NADH could have been employed.\n(§2) The subjects in these examples were volunteers between 35 and 55 years of age, and were in good general physical health. […] In addition, subjects were required to have a normal day/night sleep schedule in their home time zone, and to have an Epworth Sleepiness Scale rating >8 at baseline (“baseline” being the testing in San Diego on the day of the flight) (see E. Hoddes et al., Quantification of Sleepiness: A New Approach, Psychophysiology (1973), 10(4):431-6). […]\n(§3) Subjects arrived at the San Diego, Calif. test site at 1200 hours on the day of the flight. […] Subjects were transported to the San Diego Airport and flown to Phoenix, Ariz. where they were shuttled to a conference room at a nearby hotel, provided dinner, and readministered the battery of tests at approximately 2030 hours. […]"}, "[1]": {"system": "effects of jet lag and sleep deprivation on human beings", "assay": "Stanford Sleepiness Scale self-report", "assay_type": "in vivo", "conditions": "sublingual NADH 20 mg", "method": "as §1\nThe subjects in these examples were volunteers between 35 and 55 years of age, and were in good general physical health. At a screening visit, subjects were urine tested to screen for the use of illicit drugs and pregnancy. Cognitive screening with the Trail Making Test and Symbol Digit Modalities Test (see M. D. Lezak, Neuropsychological Assessment, 3rd ed., Oxford University Press (1995)) was used to exclude subjects with cognitive function test scores>1 SD below the mean for their age. Subjects were required to be gainfully employed, to have completed 14 years of formal education, and to have none of the following conditions: history of substance abuse, obesity (body mass index>30 kg/m^2), air sickness, pregnancy, nicotine use (within 6-months), mental health disorder (within 1 year), or sleep disorder. In addition, subjects were required to have a normal day/night sleep schedule in their home time zone, and to have an Epworth Sleepiness Scale rating >8 at baseline (“baseline” being the testing in San Diego on the day of the flight) (see E. Hoddes et al., Quantification of Sleepiness: A New Approach, Psychophysiology (1973), 10(4):431-6). Subjects were not permitted to be taking antidepressant medications, CNS stimulants, neuroleptics, Ginseng, Gingko Biloba, melatonin, phosphatylcholine, -acetyl carnatene, or other medications/nutritional supplements reported to enhance cognitive functioning within 90 days of the study. During the study, subjects were not permitted to use caffeine, alcohol or to take any prescription or over-the-counter medications known to enhance or depress CNS functioning.\nSubjects arrived at the San Diego, Calif. test site at 1200 hours on the day of the flight. The study protocol was reviewed with the subjects and they were then each issued a laptop computer (IBM Thinkpad Model 760) and familiarized with the tests and measures to be used in the study. At approximately 1500 hours subjects were administered the entire battery of tests to establish their baseline performance (“baseline”). Subjects also received training in the method for taking the sublingual tablets. Subjects were transported to the San Diego Airport and flown to Phoenix, Ariz. where they were shuttled to a conference room at a nearby hotel, provided dinner, and readministered the battery of tests at approximately 2030 hours. Subjects were shuttled back to the airport and boarded a flight to Baltimore, Md. at 2230 hours. Thirty minutes into the flight the subjects were instructed to complete a subset of the battery of tests. Subjects were permitted to sleep after completing the tests. The duration of the flight from Phoenix to Baltimore is approximately 4 hours. Furthermore, there is a 3-hour time difference between San Diego and Baltimore. The local time in Baltimore upon arrival was approximately 0600 hours. After breakfast, subjects were shuttled to the Washington, D.C. test site where they arrived at approximately 0800 hours.\n(§4) Sublingual NADH 20 mg (4 tablets of sublingual ENADAlert™ 5 mg) or an equal number of identical placebo tablets were administered by study site personnel to the subjects upon their arrival at the Washington test site. At the test site, subjects' activities were carefully monitored to avoid dehydration, exposure to daylight (subjects were kept indoors) and hunger (they were provided breakfast and lunch, which all subjects ate). […]"}, "[2]": {"system": "effects of jet lag and sleep deprivation on human beings", "assay": "ANAM Math Test (working memory, math reasoning)", "assay_type": "in vivo", "conditions": "sublingual NADH 20 mg", "method": "as §1, §2, §3"}, "Stability at acidic pH": {"assay": "Stability at acidic pH", "assay_type": "physicochemical", "conditions": "pHs below 7, as in the human stomach", "text": "Therefore, when used in oral form, these substances must be coated with an acid-stable protective film so that they can survive the stomach environment for subsequent absorption by the intestine. Suitable acid-stable coatings are known in the art and can be applied by a conventional coating process after the active ingredients are formed into a tablet or capsule. Examples of suitable coatings are: cellulose acetate phthalate; polyvinylacetate phthalate; hydroxyl-propyl-methyl cellulose phthalate; methacryllic acid copolymers; fat-wax; shellac; zein; aqua-coating; and surerelease. Another possibility for the coating is a solution of a phthalate and a lack dry substance in isopropanol. An example of a suitable lack dry substance is sold under the name […]™ by Rohm Pharma. Alternatively, a protein coating in an aqueous medium may be applied. However, a sugar-coating should not be used because it will destabilize NADH."}, "[3]": {"system": "effects of jet lag and sleep deprivation on human beings", "assay": "Kay Continuous Performance Test (KCPT), sustained attention and vigilance", "assay_type": "in vivo", "conditions": "sublingual NADH 20 mg", "method": "as §1\nThe subjects in these examples were volunteers between 35 and 55 years of age, and were in good general physical health. At a screening visit, subjects were urine tested to screen for the use of illicit drugs and pregnancy. […] In addition, subjects were required to have a normal day/night sleep schedule in their home time zone, and to have an Epworth Sleepiness Scale rating >8 at baseline (“baseline” being the testing in San Diego on the day of the flight) (see E. Hoddes et al., Quantification of Sleepiness: A New Approach, Psychophysiology (1973), 10(4):431-6). […]\nas §3, §4"}, "[4]": {"system": "effects of jet lag and sleep deprivation on human beings", "assay": "CogScreen Dual Task Test: Tracking Alone (psychomotor functioning)", "assay_type": "in vivo", "conditions": "sublingual NADH 20 mg, 31% at baseline", "method": "as §1, §2, §3"}, "[5]": {"system": "effects of jet lag and sleep deprivation on human beings", "assay": "CogScreen Visual Sequence Comparison Test (visual perceptual speed and accuracy)", "assay_type": "in vivo", "conditions": "sublingual NADH 20 mg; PM test vs baseline; placebo 1.4; P=0.026", "method": "as §1, §2, §3"}, "[6]": {"system": "effects of jet lag and sleep deprivation on human beings", "assay": "CCAB Mark Numbers Test (divided attention)", "assay_type": "in vivo", "conditions": "sublingual NADH 20 mg", "method": "as §1, §2, §3"}, "[7]": {"system": "effects of jet lag and sleep deprivation on human beings", "assay": "CogScreen Shifting Attention Test: Instruction Condition (working memory)", "assay_type": "in vivo", "conditions": "sublingual NADH 20 mg", "method": "as §1, §2, §3"}, "[8]": {"system": "effects of jet lag and sleep deprivation on human beings", "assay": "CogScreen Matching to Sample Test", "assay_type": "in vivo", "conditions": "sublingual NADH 20 mg; baseline to PM; placebo 1.0; P=0.078", "method": "as §1, §2, §3"}, "[9]": {"system": "effects of jet lag and sleep deprivation on human beings", "assay": "ANAM Running Memory Test (vigilance, working memory) after overnight flight", "assay_type": "in vivo", "conditions": "sublingual NADH 20 mg", "method": "as §1, §2, §3"}, "[10]": {"system": "effects of jet lag and sleep deprivation on human beings", "assay": "Walter Reed Mood Scale self-report", "assay_type": "in vivo", "conditions": "sublingual NADH 20 mg", "method": "as §1, §2, §3"}}, "data": [{"compound": "NC(=O)C1=CN([C@@H]2O[C@H](COP(=O)(O)OP(=O)(O)OC[C@H]3O[C@@H](n4cnc5c(N)ncnc54)[C@H](O)[C@@H]3O)[C@@H](O)[C@H]2O)C=CC1", "note": "[NADH, reduced nicotinamide adenine dinucleotide]", "values": [{"measurement": "adverse effects attributable to treatment", "setting": "human beings", "value": "no adverse effects"}, {"measurement": "subjects reporting an increase in sleepiness compared to baseline", "setting": "[1]; AM test session, placebo 62.5%", "value": 57.1, "unit": "%"}, {"measurement": "subjects with Stanford Sleepiness Scale rating of 1 or 2", "setting": "[1]; AM test, 82% at baseline, placebo identical", "value": 35, "unit": "%"}, {"measurement": "subjects with Stanford Sleepiness Scale rating of 3 or more", "setting": "[1]; AM test, placebo identical", "value": 65, "unit": "%"}, {"measurement": "subjects no longer reporting an increase in sleepiness relative to baseline", "setting": "[1]; PM test session, placebo 25%", "value": 57.7, "unit": "%"}, {"measurement": "number of subjects with Stanford Sleepiness Scale rating of 1 or 2", "setting": "[1]; PM test, 17 subjects, placebo four, p=0.07", "value": "eight"}, {"measurement": "number of subjects with Stanford Sleepiness Scale rating of 3 or more", "setting": "[1]; PM test, 17 subjects, placebo thirteen", "value": "nine"}, {"measurement": "subjects reporting no sleepiness", "setting": "[1]; afternoon test, with 11 additional subjects (n=46), placebo 18%, P<0.02", "value": 48, "unit": "%"}, {"measurement": "ANAM Math Test throughput improvement relative to baseline", "setting": "[2]; AM test, placebo 6%, Group x Session P<0.07", "value": 15, "unit": "%"}, {"measurement": "ANAM Math Test throughput improvement relative to baseline", "setting": "[2]; PM test, placebo 4%", "value": 11, "unit": "%"}, {"measurement": "stability at pHs below 7", "setting": "Stability at acidic pH", "value": "very unstable"}, {"measurement": "subjects with normal baseline performance who made two or more errors on KCPT", "setting": "[3]; AM test, 90 min after dosing, placebo 44%", "value": 36, "unit": "%"}, {"measurement": "subjects who had resumed a normal level of KCPT performance", "setting": "[3]; PM test, placebo 63%, P<0.08", "value": 86, "unit": "%"}, {"measurement": "subjects with omission errors on the KCPT", "setting": "[3]; afternoon, placebo 37%", "value": 14, "unit": "%"}, {"measurement": "subjects with tracking failures", "setting": "[4]; AM test, placebo 41%", "value": 33, "unit": "%"}, {"measurement": "subjects with tracking failures", "setting": "[4]; PM test, placebo 29%, P<0.09", "value": 11, "unit": "%"}, {"measurement": "more items correctly completed per minute vs baseline (Visual Sequence Comparison throughput)", "setting": "[5]", "value": 5.4, "unit": "items per minute"}, {"measurement": "increase of Mark Numbers Test Total Score", "setting": "[6]; PM test, placebo 19.2 points, P=0.011", "value": 77.5, "unit": "points"}, {"measurement": "decrease of secondary task reaction time, Mark Numbers Test", "setting": "[6]; baseline to AM, placebo increased by 0.44 seconds, P=0.016", "value": 0.15, "unit": "s"}, {"measurement": "more problems correctly completed per minute vs. baseline (Shifting Attention Test throughput)", "setting": "[7]; AM test vs baseline, placebo 6.8, Group x Session P<0.05", "value": 13.2, "unit": "problems per minute"}, {"measurement": "Shifting Attention Test: Instruction Condition accuracy", "setting": "[7]; AM test, 92.5% at baseline, placebo 93% to 91%", "value": 95, "unit": "%"}, {"measurement": "more correct responses per minute (Matching to Sample throughput)", "setting": "[8]", "value": "4.9 correct responses per minute"}, {"measurement": "mean accuracy on the Running Memory Test", "setting": "[9]; afternoon (PM) test, placebo 91%", "value": 96, "unit": "%"}, {"measurement": "Running Memory accuracy", "setting": "[9]; stable across all three sessions (baseline, AM, PM), 14 subjects, Group x Session P=0.036, placebo dropped 95% to 91%", "value": "approximately 96%"}, {"measurement": "self-reported fatigue and activity level, difference between NADH and placebo groups", "setting": "[10]", "value": "no significant differences"}]}]}
